Results taken from PMC11025159 (Journal of Translational Medicine, 2024).

Columns and labels:
JAK3 = molecular target: T1, JAK3 (Homo sapiens, UniProt P52333); assay: Cell-free kinase assay JAK3; assay type: biochemical
T1 construct: purchased Promega Corporation V3701
T1 sequence (P52333 1-1124): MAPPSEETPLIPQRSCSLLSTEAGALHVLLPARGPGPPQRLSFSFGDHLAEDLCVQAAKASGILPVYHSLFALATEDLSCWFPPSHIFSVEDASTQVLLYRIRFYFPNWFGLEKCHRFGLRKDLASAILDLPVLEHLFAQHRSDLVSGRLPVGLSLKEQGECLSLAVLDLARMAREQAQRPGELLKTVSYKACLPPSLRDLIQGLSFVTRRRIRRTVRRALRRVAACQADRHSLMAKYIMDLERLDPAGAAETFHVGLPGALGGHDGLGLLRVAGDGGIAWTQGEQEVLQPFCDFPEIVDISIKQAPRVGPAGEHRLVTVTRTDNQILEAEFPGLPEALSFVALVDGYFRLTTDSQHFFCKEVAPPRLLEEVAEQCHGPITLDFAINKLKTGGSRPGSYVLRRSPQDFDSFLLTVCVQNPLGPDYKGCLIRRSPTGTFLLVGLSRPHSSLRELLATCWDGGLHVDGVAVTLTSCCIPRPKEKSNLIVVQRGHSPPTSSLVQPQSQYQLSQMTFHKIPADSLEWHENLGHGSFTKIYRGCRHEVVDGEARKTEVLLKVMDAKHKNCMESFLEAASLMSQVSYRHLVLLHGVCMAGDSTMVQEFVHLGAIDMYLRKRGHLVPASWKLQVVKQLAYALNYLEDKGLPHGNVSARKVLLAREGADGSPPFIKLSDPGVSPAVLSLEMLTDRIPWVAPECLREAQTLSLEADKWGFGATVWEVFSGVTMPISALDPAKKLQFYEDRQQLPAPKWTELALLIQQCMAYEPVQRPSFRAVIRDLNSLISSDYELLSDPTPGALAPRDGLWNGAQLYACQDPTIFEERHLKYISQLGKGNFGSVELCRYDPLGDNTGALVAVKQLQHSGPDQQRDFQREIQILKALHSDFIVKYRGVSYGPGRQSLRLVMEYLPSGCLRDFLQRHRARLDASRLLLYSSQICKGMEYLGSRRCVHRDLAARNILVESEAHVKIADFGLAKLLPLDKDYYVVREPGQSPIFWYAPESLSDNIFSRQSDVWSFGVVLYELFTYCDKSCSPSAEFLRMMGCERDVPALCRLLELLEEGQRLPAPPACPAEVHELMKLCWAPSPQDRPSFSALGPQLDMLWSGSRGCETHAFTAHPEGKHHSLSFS
Experimental: (§1) The cell-free kinase assays of small molecules were determined by following the manufacturer-recommended protocols. Different concentrations in triplicate were used to determine the IC50 value of the hit molecules (active molecules). For data analysis, GraphPad Prism V9.5 Software and a sigmoidal dose–response (variable slope) equation were used. Each value represents an average of three replicates per concentration.

PI-3-K δ = molecular target: T2, PI-3-K δ (Homo sapiens, UniProt O00329); assay: Cell-free kinase assay PI-3-K δ; assay type: biochemical; details: Km ATP
T2 construct: purchased Promega Corporation V1690
T2 sequence (O00329 whole entry): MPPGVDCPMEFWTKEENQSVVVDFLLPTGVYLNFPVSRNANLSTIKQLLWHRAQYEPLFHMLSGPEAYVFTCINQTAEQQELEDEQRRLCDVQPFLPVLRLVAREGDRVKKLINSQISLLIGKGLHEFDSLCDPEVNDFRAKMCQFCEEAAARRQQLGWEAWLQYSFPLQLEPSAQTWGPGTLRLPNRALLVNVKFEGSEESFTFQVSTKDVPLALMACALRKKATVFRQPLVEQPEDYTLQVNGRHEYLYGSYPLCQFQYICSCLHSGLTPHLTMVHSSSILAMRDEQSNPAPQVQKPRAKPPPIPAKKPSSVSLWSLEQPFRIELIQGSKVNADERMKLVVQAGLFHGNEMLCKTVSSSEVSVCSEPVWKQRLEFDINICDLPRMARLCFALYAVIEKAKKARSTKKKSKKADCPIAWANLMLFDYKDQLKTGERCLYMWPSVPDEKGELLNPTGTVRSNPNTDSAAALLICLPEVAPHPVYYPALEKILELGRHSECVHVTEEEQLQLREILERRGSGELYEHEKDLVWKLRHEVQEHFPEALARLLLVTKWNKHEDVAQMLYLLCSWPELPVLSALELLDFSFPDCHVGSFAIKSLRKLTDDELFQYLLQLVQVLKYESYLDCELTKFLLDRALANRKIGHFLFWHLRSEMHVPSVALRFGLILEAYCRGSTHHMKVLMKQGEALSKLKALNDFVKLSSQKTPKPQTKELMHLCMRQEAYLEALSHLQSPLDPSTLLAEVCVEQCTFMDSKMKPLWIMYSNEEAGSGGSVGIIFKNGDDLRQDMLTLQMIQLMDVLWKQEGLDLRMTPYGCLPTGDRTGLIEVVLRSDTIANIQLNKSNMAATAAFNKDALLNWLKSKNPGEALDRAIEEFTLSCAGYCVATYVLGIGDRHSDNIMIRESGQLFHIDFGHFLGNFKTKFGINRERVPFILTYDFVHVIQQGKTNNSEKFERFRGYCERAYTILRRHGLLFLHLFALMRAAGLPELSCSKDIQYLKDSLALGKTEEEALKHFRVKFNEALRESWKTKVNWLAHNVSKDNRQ
T2 sequence (P27986 whole entry partner): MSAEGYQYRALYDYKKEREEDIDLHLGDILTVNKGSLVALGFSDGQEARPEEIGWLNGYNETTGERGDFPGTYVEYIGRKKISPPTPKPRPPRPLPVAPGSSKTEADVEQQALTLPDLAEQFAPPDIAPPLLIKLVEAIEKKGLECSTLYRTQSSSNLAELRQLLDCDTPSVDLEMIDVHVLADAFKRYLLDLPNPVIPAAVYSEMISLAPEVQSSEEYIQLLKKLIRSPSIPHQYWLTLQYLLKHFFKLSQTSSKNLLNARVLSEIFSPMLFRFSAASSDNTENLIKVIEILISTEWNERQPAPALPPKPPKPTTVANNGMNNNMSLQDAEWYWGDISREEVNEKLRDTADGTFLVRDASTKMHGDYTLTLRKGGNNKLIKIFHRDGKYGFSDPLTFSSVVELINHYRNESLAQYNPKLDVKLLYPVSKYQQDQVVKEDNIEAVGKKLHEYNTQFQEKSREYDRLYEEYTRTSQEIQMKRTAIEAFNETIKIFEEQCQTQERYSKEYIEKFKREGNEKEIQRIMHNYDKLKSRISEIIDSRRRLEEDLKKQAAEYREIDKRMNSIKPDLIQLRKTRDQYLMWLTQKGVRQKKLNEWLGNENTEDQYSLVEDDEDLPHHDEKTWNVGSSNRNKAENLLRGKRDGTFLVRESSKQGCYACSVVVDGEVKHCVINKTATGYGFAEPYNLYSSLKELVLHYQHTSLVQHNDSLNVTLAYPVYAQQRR
Experimental: as §1

HCT-116 = assay: MTT cell viability assay HCT-116; assay type: cell-based, human; details: Homo sapiens, HCT-116, 48 h
Experimental: Cell viability was evaluated using an MTT colorimetric assay. Cells were seeded (10^5 cells/mL) in 96-well plates and allowed to grow overnight at 37 ℃ with 5% CO2 in a cell-culture incubator. On the following day, the cells were treated with small molecules at different concentrations (0.2–10 micro-molar) or vehicle (DMSO). Cells were then further incubated for 48 h.

EGFR = molecular target: T3, EGFR (Homo sapiens, UniProt P00533); assay: Cell-free kinase assay EGFR; assay type: biochemical
T3 construct: purchased Promega Corporation V3831
T3 sequence (P00533 25-1210): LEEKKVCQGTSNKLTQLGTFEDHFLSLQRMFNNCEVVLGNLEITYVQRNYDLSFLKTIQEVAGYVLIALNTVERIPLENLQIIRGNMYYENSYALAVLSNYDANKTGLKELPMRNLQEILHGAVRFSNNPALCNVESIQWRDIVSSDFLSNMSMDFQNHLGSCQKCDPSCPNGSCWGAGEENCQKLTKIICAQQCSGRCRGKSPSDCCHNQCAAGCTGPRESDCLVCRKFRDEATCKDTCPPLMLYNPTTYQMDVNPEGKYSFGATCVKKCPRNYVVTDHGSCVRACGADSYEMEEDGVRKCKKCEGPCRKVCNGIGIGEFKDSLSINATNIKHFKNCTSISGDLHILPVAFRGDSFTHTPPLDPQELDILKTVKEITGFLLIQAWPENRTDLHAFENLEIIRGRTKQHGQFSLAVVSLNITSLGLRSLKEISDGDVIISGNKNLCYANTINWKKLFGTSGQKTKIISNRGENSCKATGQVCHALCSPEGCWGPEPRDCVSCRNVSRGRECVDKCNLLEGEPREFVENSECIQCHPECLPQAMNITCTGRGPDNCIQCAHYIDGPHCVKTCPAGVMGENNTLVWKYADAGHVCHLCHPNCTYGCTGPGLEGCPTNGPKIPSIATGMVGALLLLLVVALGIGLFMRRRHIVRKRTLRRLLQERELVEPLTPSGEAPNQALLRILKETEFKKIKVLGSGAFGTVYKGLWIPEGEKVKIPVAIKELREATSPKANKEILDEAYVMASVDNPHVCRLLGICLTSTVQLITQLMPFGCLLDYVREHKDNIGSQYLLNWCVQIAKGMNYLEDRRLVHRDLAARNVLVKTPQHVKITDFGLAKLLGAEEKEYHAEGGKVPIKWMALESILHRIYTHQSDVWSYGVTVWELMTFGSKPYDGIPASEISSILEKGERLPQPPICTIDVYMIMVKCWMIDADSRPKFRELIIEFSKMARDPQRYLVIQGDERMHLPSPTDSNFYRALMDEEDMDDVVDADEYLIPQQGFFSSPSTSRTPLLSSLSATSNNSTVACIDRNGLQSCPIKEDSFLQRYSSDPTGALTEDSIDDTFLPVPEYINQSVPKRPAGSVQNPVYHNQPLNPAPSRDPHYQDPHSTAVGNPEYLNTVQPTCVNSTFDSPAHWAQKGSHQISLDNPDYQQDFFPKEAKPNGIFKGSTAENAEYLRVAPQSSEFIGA
Experimental: as §1

hERG channels = molecular target: T4, hERG channels (Homo sapiens, UniProt Q12809); assay: hERG channel assay, whole cell patch clamp; assay type: cell-based
T4 construct: host or cells: HEK293
T4 sequence (Q12809 whole entry): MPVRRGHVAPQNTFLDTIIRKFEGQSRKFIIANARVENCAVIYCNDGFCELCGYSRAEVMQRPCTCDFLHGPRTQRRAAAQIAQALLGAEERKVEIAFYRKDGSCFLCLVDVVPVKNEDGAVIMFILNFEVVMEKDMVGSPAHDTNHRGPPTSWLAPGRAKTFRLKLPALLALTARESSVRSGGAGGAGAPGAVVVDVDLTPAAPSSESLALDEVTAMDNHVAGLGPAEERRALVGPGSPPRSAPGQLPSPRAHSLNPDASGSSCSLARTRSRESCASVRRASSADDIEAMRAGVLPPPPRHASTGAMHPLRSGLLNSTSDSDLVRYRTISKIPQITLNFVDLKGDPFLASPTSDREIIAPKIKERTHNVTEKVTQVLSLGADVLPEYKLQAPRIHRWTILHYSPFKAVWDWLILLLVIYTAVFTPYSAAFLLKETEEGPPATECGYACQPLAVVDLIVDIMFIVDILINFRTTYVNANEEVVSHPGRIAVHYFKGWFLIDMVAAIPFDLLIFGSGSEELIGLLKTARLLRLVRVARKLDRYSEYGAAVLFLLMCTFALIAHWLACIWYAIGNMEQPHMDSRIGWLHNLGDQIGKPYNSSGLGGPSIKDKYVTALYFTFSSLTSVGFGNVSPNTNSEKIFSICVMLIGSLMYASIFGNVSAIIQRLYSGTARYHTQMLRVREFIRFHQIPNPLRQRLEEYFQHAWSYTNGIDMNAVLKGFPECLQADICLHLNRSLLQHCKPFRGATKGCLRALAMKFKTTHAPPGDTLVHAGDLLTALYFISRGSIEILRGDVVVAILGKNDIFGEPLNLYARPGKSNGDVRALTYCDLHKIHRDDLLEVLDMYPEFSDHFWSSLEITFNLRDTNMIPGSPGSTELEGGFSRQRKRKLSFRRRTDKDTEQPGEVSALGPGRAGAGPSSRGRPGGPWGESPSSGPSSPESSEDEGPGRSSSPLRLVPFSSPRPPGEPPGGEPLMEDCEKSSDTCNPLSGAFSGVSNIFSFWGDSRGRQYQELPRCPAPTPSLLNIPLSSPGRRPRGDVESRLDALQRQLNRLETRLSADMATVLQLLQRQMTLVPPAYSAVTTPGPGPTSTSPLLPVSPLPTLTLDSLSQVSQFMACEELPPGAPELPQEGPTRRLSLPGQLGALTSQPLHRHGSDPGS

[1] = test system: phosphorylation of JAK1, JAK3 and STAT3; assay: Western blotting of JAK/STAT phosphorylation in A549 cells; assay type: cell-based, human
Experimental: For western blotting, A549 cells were seeded at a density of 0.2 × 10^6 cells/well in 6-well plates. […] Whole-cell lysates were prepared in 1× RIPA buffer (Sigma) with added sodium orthovanadate (1 mM), protease cocktail (Roche), NaF (1 mM), PMSF (1 mM) and EDTA (0.5 M). Protein estimation was done using Bradford reagent (Bio-Rad). […] Whole-cell lysates corresponding to 70-100 µg of protein were loaded. The samples were analysed by SDS-PAGE with a 10% separating gel. […] The membrane was probed with specific antibodies for pJAK-1 (1:1000), p-STAT-3 (CST) (1:1000), total JAK-1 (1:1000), pJAK-3 Z(1:1000), T-JAK-3 (1:1000), total STAT-3(1:1000), GAPDH (1:500), and visualized using ECL (Millipore). GAPDH was used as a loading control. […] Following this starvation period, the A549 cells were pre-treated with varying concentrations of MJ04 for a duration of 4 h. Following the pre-treatment, the cells were stimulated with 10 ng/mL of IL-6 for 30 min [20–22].

[2] = Acute dermal toxicity / irritation in C57BL/6 mice; assay type: in vivo
Experimental: The acute dermal toxicity was conducted in Wistar rats to determine the dermal LD50 of MJ04 adhering to Organization for Economic Cooperation and Development (OECD) test guideline 402. A single dose of MJ04 covering 10% of body surface area was administered using a fixed dose procedure from 200 mg/kg to 2000 mg/kg with two animals per dose. The animals were monitored for mortality, morbidity, and clinical signs of toxicity at first 30 min, 6 h, 24 h, and thereafter for 14 days. Parameters like body weight, serum biochemistry (liver function test, kidney function test, and lipid Profile), and histopathology were analysed. The acute dermal irritation test was conducted in C57BL/6J mice at a single dose of 0.04 mg/kg and 0.08 mg/kg of MJ04.
Signal dose acute dermal toxicity tests were conducted in C57BL/6 mice. The tests included limited dosages of a single dose at 0.04 mg/kg and 0.08 mg/kg of MJ04. […] Digital photographs were taken at various time points (0 min, 5 min, 1 h, 4 h, 24 h, and 14 days) from representative areas using a Nikon digital camera (n = 5 mice).

[3] = A549 cells, increasing concentrations

Fc1ccc(-c2cnc3[nH]cc(-c4ccnc(NC5CC5)n4)c3c2)cc1 [MJ04]
IC50 (JAK3; 1mM ATP): 0.0285 µM
Fold of selectivity vs. JAK3 (JAK3; JAK 3): 1
IC50 (JAK3; Km ATP (2.5 µM)): 0.00203 µM
inhibitory activity against JAK3 in kinase assays and in MTT assays (JAK3; structure-activity statement): significant inhibitory activity
IC50 (PI-3-K δ): > 10 µM
IC50 (HCT-116): 2.6 µM
Fold of selectivity vs. JAK3 (EGFR; EGFR): 1609
IC50 (EGFR; Km ATP): 3.27 µM
reduction of hERG outward tail current (hERG channels; 10 μM): 7.1 ± 2%
inhibitory effect on hERG, fold less than that of Tofacitinib (hERG channels; highest concentration tested (30 μM)): ~ 2.5 fold
STAT3 phosphorylation ([1]; A549 cells stimulated with IL-6): significant decrease
phosphorylation of STAT3 (Tyr705) ([1]; A549 cells, dose-dependent): significant decrease
phosphorylation of JAK1 [1, 3]: significant reduction
phosphorylation of JAK3 [1, 3]: significant reduction
mortality or clinical signs of toxicity ([2]; single dose 0.04 mg/kg): no mortality or clinical signs of toxicity
skin irritation/corrosion, mortality or clinical signs of toxicity ([2]; single dose 0.08 mg/kg, 14 days, 0.08 mg/kg): no skin irritation/corrosion, mortality or clinical signs of toxicity
